{"source": "paper PMC5980259", "about": "“GI‐530159, a novel, selective, mechanosensitive two‐pore‐domain potassium (K2P) channel opener, reduces rat dorsal root ganglion neuron excitability” (British Journal of Pharmacology, 2017)", "key": {"[1]": {"system": "small rat DRG neurons", "experiment": "Current-clamp recordings from small rat DRG neurones in short-term culture", "format": "cell-based", "details": "1 μM", "method": "(§1) Acutely dissociated rat DRG cells were obtained according to a previously described protocol (Passmore, 2005). All animal care and experimental procedures complied with guidelines and were approved by the Pfizer Neusentis Institutional Animal Use and Care Committee. Animal studies are reported in compliance with the ARRIVE guidelines (Kilkenny et al., 2010; McGrath and Lilley, 2015).Cells were plated on coated coverslips (poly‐D‐lysine/laminin, BD Biosciences, San Jose, CA, USA) prior to patching on the same day. Cells were perfused with an extracellular solution containing (in mM): 135 NaCl, 4.7 KCl, 1 CaCl2, 1 MgCl2, 10 HEPES and 10 glucose, pH 7.4, with NaOH (310 mOsmol·L^−1). Pipette solution contained (in mM): 130 KCl, 1 MgCl2, 5 MgATP, 10 HEPES and 5 EGTA, pH adjusted to 7.3 with KOH (290 mOsmol·L^−1). For whole‐cell recordings, currents were filtered at 2 kHz and sampled at 5 kHz. Series resistance was compensated for by up to 80%. For current‐clamp recordings, action potential firing and resting membrane potential (RMP) were recorded from small cells ([…]). GI‐530159 was dissolved in 0.3% DMSO as 10 mM stock and applied in the vicinity of cells using a gravity fed perfusion system (MSC‐200, Bio‐Logic SAS, Claix, France)."}, "[2]": {"molecular_target": "T1, hTREK1 (Homo sapiens, UniProt O95069)", "T1 sequence (O95069 1-426)": "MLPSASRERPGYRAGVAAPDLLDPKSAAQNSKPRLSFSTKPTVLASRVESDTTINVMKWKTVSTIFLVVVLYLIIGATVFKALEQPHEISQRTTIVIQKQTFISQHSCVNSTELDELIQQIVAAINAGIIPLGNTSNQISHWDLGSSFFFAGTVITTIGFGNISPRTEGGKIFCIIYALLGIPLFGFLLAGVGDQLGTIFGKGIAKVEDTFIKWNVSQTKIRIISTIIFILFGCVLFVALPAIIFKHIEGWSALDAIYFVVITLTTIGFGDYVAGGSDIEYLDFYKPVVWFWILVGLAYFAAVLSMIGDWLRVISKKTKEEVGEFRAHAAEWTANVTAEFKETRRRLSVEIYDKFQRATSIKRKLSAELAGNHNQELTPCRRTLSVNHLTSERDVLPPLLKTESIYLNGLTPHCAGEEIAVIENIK", "experiment": "Manual whole-cell patch clamp, HEK293 cells stably expressing TREK1", "format": "cell-based", "set-up": "expressed in transfected cells", "method": "Electrophysiological studies were performed on CHO or HEK293 cells, stably expressing human recombinant TREK1; tsA‐201 cells transiently transfected with human recombinant K2P channels and acutely dissociated rat DRG cells, all at room temperature (22–24°C).\nStudies were performed using a conventional patch clamp and Multiclamp 700B and pCLAMP software (Molecular Devices, Sunnyvale, CA, USA). For conventional manual patch clamp, glass coverslips containing HEK293 cells were perfused with an extracellular solution (ECS) containing (in mM): 135 NaCl, 4.7 KCl, 1 CaCl2, 1 MgCl2, 10 HEPES and 10 glucose, pH 7.4, with NaOH (310 mOsmol·L^−1). The patch pipette was filled with (in mM): 130 KCl, 1 MgCl2, 5 MgATP, 10 HEPES and 10 BAPTA, pH adjusted to 7.3 with KOH (290 mOsmol·L^−1)."}, "[3]": {"system": "Na current in DRG neurons", "experiment": "Voltage-clamp recordings from DRG neurons, Na current", "format": "cell-based, rat", "method": "as §1"}, "[4]": {"molecular_target": "T2, human TREK1 single channels (Homo sapiens, UniProt O95069)", "T2 construct": "expressed in transfected cells", "experiment": "Single-channel recording, excised inside-out patches from HEK293 cells", "format": "biochemical", "details": "10 μM on intracellular side, +60 mV", "method": "Human TREK1 single channels were recorded in excised inside‐out membrane patches using an Axopatch 200B patch‐clamp amplifier and pCLAMP 10 software. Inside‐out membrane patches were excised from HEK293 cells expressing human TREK1 channels. Sylguard® 184‐coated glass pipettes with resistance around 10–15 MΩ were used. Pipette and bath compositions for inside‐out patches were opposite to those used in voltage‐clamp, that is, the pipette solution on the extracellular face of the channels contained 130 mM K and the bath solution on the intracellular face of the channel contained 4.7 mM K. Channel activities were recorded at +60 mV. The action of a hTREK1 opener was tested by addition to the intracellular solution. Single‐channel records were filtered with an eight‐pole Bessel filter (model LHBF‐48X, npi electronic GmbH, Tamm, Germany) at a corner frequency (fc) of 2 kHz and acquired using a DigiData 1440A interface and pCLAMP 10 software at a sampling rate of 20 kHz. Single‐channel traces were generated without further filtering."}, "[5]": {"molecular_target": "NaV1.8 (Homo sapiens, UniProt Q9Y5Y9)", "sequence (Q9Y5Y9 whole entry)": "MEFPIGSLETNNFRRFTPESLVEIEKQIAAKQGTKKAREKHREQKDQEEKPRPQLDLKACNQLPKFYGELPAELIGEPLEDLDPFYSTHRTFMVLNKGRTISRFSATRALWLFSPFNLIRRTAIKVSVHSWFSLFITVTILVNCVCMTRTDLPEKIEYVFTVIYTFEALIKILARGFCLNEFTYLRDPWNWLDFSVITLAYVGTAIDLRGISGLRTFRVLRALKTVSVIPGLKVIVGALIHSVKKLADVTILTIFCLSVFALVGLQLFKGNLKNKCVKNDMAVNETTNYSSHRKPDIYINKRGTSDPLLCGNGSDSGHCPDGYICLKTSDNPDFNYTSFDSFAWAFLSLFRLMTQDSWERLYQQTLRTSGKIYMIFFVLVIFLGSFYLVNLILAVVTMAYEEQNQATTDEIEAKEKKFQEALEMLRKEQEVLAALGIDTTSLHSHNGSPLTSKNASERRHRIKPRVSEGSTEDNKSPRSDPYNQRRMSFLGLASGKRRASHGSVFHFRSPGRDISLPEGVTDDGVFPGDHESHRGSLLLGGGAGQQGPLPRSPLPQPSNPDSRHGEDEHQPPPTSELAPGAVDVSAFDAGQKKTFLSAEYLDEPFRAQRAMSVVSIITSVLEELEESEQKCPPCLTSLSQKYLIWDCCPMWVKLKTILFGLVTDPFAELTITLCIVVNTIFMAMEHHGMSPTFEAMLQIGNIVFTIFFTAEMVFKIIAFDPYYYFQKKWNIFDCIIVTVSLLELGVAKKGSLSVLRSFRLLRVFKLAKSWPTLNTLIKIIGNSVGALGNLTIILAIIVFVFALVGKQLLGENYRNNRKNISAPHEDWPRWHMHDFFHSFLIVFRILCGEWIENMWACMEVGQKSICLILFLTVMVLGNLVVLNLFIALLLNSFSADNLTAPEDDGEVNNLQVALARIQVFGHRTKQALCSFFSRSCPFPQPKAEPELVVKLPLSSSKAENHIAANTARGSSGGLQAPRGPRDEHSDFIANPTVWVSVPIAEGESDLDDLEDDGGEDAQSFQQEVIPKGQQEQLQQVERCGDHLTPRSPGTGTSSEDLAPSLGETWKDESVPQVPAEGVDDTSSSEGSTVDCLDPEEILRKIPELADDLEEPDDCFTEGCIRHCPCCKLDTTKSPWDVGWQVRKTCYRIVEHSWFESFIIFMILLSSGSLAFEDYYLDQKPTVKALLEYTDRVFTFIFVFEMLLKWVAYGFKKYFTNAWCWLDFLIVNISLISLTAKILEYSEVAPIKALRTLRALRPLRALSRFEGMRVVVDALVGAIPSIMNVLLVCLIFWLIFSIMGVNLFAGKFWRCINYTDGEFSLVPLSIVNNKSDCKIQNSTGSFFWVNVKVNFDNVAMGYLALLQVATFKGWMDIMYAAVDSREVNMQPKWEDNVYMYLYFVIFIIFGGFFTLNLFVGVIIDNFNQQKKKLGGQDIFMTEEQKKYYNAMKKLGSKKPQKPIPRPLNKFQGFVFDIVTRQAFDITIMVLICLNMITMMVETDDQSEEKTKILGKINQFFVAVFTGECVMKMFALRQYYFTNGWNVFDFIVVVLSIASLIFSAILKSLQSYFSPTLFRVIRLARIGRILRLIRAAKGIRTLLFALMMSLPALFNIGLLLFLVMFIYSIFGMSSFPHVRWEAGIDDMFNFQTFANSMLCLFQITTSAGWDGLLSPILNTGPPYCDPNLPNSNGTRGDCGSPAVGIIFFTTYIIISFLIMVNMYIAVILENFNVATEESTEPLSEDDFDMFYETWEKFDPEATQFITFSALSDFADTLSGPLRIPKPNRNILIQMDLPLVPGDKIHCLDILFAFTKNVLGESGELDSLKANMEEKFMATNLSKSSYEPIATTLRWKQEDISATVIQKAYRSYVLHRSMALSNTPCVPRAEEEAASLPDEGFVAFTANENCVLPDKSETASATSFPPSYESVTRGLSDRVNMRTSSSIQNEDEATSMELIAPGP", "experiment": "Sodium channel selectivity, NaV1.8", "format": "cell-based", "details": "read-out: EC50 against NaV1.8"}, "[6]": {"molecular_target": "TASK3 (K2P9.1) (Homo sapiens, UniProt Q9NPC2)", "sequence (Q9NPC2 whole entry, species assumed)": "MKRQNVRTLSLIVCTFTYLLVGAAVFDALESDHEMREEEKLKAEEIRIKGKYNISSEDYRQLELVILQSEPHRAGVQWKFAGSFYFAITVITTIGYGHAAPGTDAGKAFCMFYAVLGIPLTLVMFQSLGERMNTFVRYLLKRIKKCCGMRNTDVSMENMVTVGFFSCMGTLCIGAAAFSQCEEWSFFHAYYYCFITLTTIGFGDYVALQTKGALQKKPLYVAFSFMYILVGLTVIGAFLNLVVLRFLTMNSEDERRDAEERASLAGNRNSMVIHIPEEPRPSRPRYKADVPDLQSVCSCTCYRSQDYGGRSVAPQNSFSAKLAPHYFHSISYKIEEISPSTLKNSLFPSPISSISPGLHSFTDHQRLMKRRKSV", "experiment": "Activated current, TASK3 channels", "format": "cell-based", "details": "1 μM; n = 5"}, "[7]": {"molecular_target": "KCa1.1 (BK) (Homo sapiens, UniProt Q12791)", "experiment": "Manual patch clamp in recombinant cell lines, BK", "format": "cell-based", "details": "10 μM; n = 4"}, "[8]": {"molecular_target": "NaV1.7 (Homo sapiens, UniProt Q15858)", "sequence (Q15858 whole entry)": "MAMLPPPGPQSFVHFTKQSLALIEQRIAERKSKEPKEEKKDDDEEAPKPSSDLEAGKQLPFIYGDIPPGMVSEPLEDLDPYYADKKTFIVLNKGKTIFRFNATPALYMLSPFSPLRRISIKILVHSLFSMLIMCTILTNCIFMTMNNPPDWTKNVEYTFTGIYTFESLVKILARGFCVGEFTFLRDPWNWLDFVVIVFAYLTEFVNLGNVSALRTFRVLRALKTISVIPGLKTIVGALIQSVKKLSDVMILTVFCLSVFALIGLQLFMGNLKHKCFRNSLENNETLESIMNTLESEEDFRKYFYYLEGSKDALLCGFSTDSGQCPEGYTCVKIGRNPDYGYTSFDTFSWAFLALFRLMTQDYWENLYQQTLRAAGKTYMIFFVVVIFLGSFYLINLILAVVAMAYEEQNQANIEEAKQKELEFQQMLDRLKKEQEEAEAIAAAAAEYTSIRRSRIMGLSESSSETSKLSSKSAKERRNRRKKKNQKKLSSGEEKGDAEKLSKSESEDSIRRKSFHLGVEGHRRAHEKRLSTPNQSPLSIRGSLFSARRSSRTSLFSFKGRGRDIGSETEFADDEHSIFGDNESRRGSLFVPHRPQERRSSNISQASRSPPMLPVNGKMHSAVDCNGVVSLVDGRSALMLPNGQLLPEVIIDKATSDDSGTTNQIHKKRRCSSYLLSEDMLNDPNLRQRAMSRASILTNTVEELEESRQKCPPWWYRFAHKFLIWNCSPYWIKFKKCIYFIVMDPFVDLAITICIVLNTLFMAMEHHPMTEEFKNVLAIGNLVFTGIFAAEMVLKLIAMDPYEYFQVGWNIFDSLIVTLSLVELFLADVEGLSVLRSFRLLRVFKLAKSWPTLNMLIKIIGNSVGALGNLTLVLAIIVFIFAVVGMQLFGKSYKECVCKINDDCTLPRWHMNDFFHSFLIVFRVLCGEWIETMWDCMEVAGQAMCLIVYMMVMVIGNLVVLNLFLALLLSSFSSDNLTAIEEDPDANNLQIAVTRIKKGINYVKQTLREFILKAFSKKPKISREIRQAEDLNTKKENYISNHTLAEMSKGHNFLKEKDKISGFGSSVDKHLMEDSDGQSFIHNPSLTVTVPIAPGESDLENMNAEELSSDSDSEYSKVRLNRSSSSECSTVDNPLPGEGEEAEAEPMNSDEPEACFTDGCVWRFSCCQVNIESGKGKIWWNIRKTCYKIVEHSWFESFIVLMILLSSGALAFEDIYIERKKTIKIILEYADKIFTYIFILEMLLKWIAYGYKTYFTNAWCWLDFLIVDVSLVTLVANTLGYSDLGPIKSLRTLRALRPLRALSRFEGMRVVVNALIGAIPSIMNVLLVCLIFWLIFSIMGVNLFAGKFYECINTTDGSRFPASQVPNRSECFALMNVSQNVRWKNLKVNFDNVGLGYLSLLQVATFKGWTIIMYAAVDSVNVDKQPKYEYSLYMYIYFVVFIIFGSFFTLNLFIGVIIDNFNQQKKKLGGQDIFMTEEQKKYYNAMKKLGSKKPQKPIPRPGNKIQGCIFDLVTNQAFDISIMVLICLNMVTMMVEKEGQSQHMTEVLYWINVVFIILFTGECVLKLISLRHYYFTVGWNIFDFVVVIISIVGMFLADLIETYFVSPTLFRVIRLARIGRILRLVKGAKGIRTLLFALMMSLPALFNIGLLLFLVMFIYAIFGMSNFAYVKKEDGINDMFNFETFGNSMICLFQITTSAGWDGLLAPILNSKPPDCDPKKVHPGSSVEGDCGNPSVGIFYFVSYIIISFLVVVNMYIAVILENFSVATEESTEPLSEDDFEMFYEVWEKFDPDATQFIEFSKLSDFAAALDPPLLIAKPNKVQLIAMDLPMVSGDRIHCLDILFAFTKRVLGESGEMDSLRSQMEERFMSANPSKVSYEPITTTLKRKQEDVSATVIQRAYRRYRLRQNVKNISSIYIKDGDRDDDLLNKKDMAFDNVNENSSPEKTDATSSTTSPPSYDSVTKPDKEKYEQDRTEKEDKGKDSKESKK", "experiment": "Sodium channel selectivity, NaV1.7", "format": "cell-based", "details": "read-out: EC50 against NaV1.7"}, "[9]": {"details": "15 pA depolarizing current injection, of the 14 cells tested"}}, "note": "Where “and” joins values, the source holds several entries; their conditions need not be identical. Equal entries are not always repeated.", "data": [{"compound": "Nc1ccc(Oc2ccc(C(c3ccc(Oc4ccc(N)cc4)cc3)(C(F)(F)F)C(F)(F)F)cc2)cc1", "note": "[GI‐530159, 4,4′‐(hexafluoroisopropylidene)bis(p‐phenyleneoxy)dianiline]", "values": [{"measurement": "share of cells with firing frequency reduced or abolished", "setting": "[1]; 14 cells tested", "value": 57, "unit": "%"}, {"measurement": "share of neurons with firing unaltered / unaffected", "setting": "[1]; 14 cells tested", "value": 43, "unit": "%"}, {"measurement": "cells with a reduction in firing frequency", "setting": "[1]; [9]", "value": "two"}, {"measurement": "cells with complete abolition in firing frequency", "setting": "[1]; [9]", "value": "six"}, {"measurement": "neurons with firing unaltered", "setting": "[1]; [9]", "value": "six"}, {"measurement": "resting membrane potential after application, averaged per rat", "setting": "[1]; n = 7 rats, from −54.0 ± 2.0 mV, P < 0.05", "value": "−57.8 ± 1.4", "unit": "mV"}, {"measurement": "resting membrane potential after application", "setting": "[1]; n = 14 individual neurons, from −53.6 ± 1.5 mV, P < 0.05", "value": "−57.1 ± 1.5", "unit": "mV"}, {"measurement": "TREK1 current measured at 0 mV", "setting": "[2]; 1 μM, HEK293, 116 ± 15 pA in presence of DMSO, n = 6, P < 0.05", "value": "4090 ± 878", "unit": "pA"}, {"measurement": "activated current, TREK1 channels", "setting": "[2]; 1 μM, n = 6", "value": "4.0 ± 0.9", "unit": "nA"}, {"measurement": "reversal potential of compound-enhanced current", "setting": "[2]; 1 μM, voltage ramp −100 to +80 mV", "value": "~−80", "unit": "mV"}, {"measurement": "enhanced current at maximal activation", "setting": "[2]; 30 μM, measured at 0 mV, n = 5", "value": "6.6 ± 0.9", "unit": "nA"}, {"measurement": "EC50", "setting": "[2]; HEK293, 0.1 to 30 μM, measured at 0 mV, read-out: EC50 for TREK1 current enhancement", "value": "890 nM and 900 nM"}, {"measurement": "block of Na current in DRG neurons", "setting": "[3]", "value": "not observed"}, {"measurement": "single-channel current amplitude", "setting": "[4]", "value": "not altered"}, {"measurement": "channel open probability", "setting": "[4]; exemplar recording, 0.009 before application", "value": 0.025}, {"measurement": "EC50", "setting": "[5]", "value": "> 100000", "unit": "nM"}, {"measurement": "activated current, TASK3 channels", "setting": "[6]", "value": "0.02 ± 0.005", "unit": "nA"}, {"measurement": "effect on KCa1.1 (BK) current", "setting": "[7]", "value": "−3.3 ± 6.7", "unit": "%"}, {"measurement": "EC50", "setting": "[8]", "value": "> 100000", "unit": "nM"}]}]}
